# According to patent publication US8236527B2, “Recombinant production of authentic human proteins using human cell expression systems” (Humanzyme Limited, priority 2008, dated 2012):
# Counter-ions that a name gives are not always drawn. Like-named read-outs stand apart in the source and are kept apart here.
# Columns and labels:
# [1] = target: p38α expressed in E. coli, Vendor A, in vitro activated by MKK6 (Homo sapiens, UniProt Q16539); assay: Kinase inhibitor IC50 determination with E. coli p38α (Vendor A, E coli-I); format: biochemical
# [2] = target: p38α produced and activated in human cells (Homo sapiens, UniProt Q16539); assay: Kinase inhibitor IC50 determination with p38α produced in human cells; format: biochemical; conditions: read-out: IC50, Human Cell
# [3] = target: p38α expressed in E. coli, Vendor B, in vitro activated by MKK6 (Homo sapiens, UniProt Q16539); assay: Kinase inhibitor IC50 determination with E. coli p38α (Vendor B, E coli-II); format: biochemical
# [4] = system: whole CD4+ cells from a healthy donor; assay: Th17 polarizing cytokines: IL-17 secretion from human CD4+ cells (ELISA); format: cell-based; conditions: for induction of IL-17 secretion: compared with cytokines from insect cell or bacterial expression system, 5 days; for Th17 cell polarization: separate study, same condition
# Text: IL-17-producing CD4+ T cells (Th-17 cells) have been identified as a unique subset of Th cells that develop along a pathway that is distinct from the Th1, and Th2-cell differentiation pathways. This finding has provided exciting new insights into immunoregulation, host defense and the pathogenesis of autoimmune diseases. Recently it has been shown that IL1β, IL6 and IL23 are important in driving human Th17 differentiation. However, TGF-β1, which is important for the differentiation of murine Th17 cells, is reported to be not required, and even inhibits human Th17 differentiation (McGeachy & Cua (2008) Immunity 28:445, Chen & O'Shea (2008) Cytokines 41:71). In this study, whole […] cells isolated from a healthy donor were stimulated with 10 μg/mL plate bound anti-CD3 and 10 μg/ml soluble anti-CD28 in the presence of Th17 polarizing cytokines from the inventive human cell expression system and from an insect cell or bacterial expression system. After 5 days supernatants were harvested for measurement of IL-17 by ELISA.
# [5] = system: human TF-1 cells; assay: IL-4 bioactivity: dose-dependent stimulation of proliferation of TF-1 cells; format: cell-based; conditions: TF-1 cell proliferation
# [6] = Km.ATP of p38α preparations; format: biochemical
# [7] = system: naïve T cell (Th0); assay: Differentiation of naive T cell (Th0) to Th17 cells, flow cytometry; format: cell-based; conditions: compared with human platelet derived native TGF-β1 (positive control)
# Description: (§1) FIG. 22: Efficient differentiation of Th17 cells with authentic cytokines expressed in human cells. Whole CD4+ T cells isolated from a healthy donor were stimulated with 2 μg/mL plate bound anti-CD3 and 1 μg/mL soluble anti-CD28 in the presence of Th17 polarizing cytokines, including a titration of IL-23. After 5 days, supernatants were harvested for measurement of IL-17 by ELISA. See (A)-(G). FIG. 22 (H) depicts flow cytometry analysis on Human Th17 Differentiation by Authentic human TGF-β1. See Example 17 below.
# [8] = system: human umbilical vein endothelial cells; assay: VEGF165 bioactivity: proliferation of human umbilical vein endothelial cells; format: cell-based; conditions: HUVEC proliferation
# [9] = system: human embryonic stem (hES) cells; assay: Oct3/4 expression in Noggin-treated human embryonic stem cells (Western blot); format: cell-based; conditions: 10 pg/ml and 20 pg/ml treatment
# [10] = system: human CD4+ T cells; assay: IL-23 activity: IL-17 secretion from human CD4+ T cells (ELISA); format: cell-based; conditions: human CD4+ cells, 5 days
# Description: (A) IL-23 activities determined by the dose-dependent secretion of IL-17 from mouse splenocytes activated with 10 ng/ml PMA. (B) IL-23 activities determined by the dose-dependent secretion of IL-17 from human CD4+ T cells stimulated with […] plate bound anti-CD3 and […] soluble anti-CD28 in the presence of Th17 polarizing cytokines.
# as §1
# IL-17-producing CD4+ T cells (Th17 cells) have been identified as a unique subset of T helper cells that develop along a pathway that is distinct from the Th1 and Th2-cell differentiation pathways. This finding has provided exciting new insights into immunoregulation, host defense and the pathogenesis of autoimmune diseases. Recently it has been shown that TGF-β1, […], IL-6 and IL-23 are important in driving human Th17 differentiation (Chen & O'Shea (2008) Cytokines 41:71). […] The activities were further assayed with human CD4+ cells which were isolated from a healthy donor and stimulated with 10 μg/ml plate bound anti-CD3 and 10 μg/ml soluble anti-CD28 in the presence of Th17 polarizing cytokines. After 5 days supernatants were harvested for measurement of IL-17 by ELISA.
# [11] = p38α from E. coli, Vendor A, read-out: IC50, E coli-I
# [12] = p38α from E. coli, Vendor B, read-out: IC50, E coli-II
# Chain of p38α produced and activated in human cells (Q16539 whole entry): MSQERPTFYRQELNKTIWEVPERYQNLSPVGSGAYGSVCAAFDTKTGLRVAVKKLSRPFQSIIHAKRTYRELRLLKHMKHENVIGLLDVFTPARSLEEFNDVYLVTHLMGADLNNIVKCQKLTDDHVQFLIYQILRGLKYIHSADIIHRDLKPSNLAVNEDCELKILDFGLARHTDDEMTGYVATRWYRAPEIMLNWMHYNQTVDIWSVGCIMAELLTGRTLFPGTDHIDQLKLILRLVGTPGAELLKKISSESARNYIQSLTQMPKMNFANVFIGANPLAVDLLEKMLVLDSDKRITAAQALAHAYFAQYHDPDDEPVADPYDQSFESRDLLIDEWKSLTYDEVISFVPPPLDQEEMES
# Chain of p38α expressed in E. coli, Vendor B, in vitro activated by MKK6 (Q16539 whole entry): as above
# Chain of p38α expressed in E. coli, Vendor A, in vitro activated by MKK6 (Q16539 whole entry): as above
molecule,measurement,setting,value
Nc1ncnc2c1c(I)cn2[C@@H]1O[C@H](CO)[C@@H](O)[C@H]1O [5-iodotubercidin],IC50,"[1]; read-out: IC50, E coli-I",> 10 µM
same,IC50,[2],> 10 µM
same,IC50,"[3]; read-out: IC50, E coli-II",> 10 µM
Nc1ncnc2c1ncn2[C@@H]1O[C@H](COP(=O)(O)OP(=O)(O)NP(=O)(O)O)[C@@H](O)[C@H]1O [AMP-PNP],fold less sensitive than human cell p38α,[1]; Vendor A preparation vs p38α from human cells,7 fold
same,IC50,[1]; [11],1810 µM
same,IC50,[2]; p38α produced in human cells,257 µM
same,IC50,[3]; [12],> 2000 µM
CN(C)CCCn1cc(C2=C(c3c[nH]c4ccccc34)C(=O)NC2=O)c2ccccc21 [GF 109203X],IC50,[1]; [11],> 10 µM
same,IC50,[2],> 10 µM
same,IC50,[3]; [12],> 10 µM
O=S(=O)(NCCNC/C=C/c1ccc(Br)cc1)c1cccc2cnccc12 [H89 Dihydrochloride],IC50,[1]; [11],> 10 µM
same,IC50,[2]; p38α produced in human cells,> 10 µM
same,IC50,[3]; [12],> 10 µM
NCCNS(=O)(=O)c1cccc2cnccc12 [H-9 dihydrochloride],IC50,[1]; [11],> 10 µM
same,IC50,[2]; p38α produced in human cells,> 10 µM
same,IC50,[3]; [12],> 10 µM
COC(=O)[C@@]1(O)C[C@H]2O[C@]1(C)n1c3ccccc3c3c4c(c5c6ccccc6n2c5c31)C(=O)NC4 [K252a],IC50,[1],> 10 µM
same,IC50,[2],0.005 µM
same,IC50,[3],> 10 µM
CCCCCCOC(=O)[C@]1(O)C[C@@H]2O[C@@]1(C)n1c3ccccc3c3c4c(c5c6ccccc6n2c5c31)C(=O)NC4 [KT5720],IC50,[1]; [11],> 10 µM
same,IC50,[2]; p38α produced in human cells,5 µM
same,IC50,[3]; [12],> 10 µM
Cn1cc(C2=C(c3cn(CCCSC(=N)N)c4ccccc34)C(=O)NC2=O)c2ccccc21 [Ro 31-8220],IC50,[1]; [11],> 10 µM
same,IC50,[2]; p38α produced in human cells,9.9 µM
same,IC50,[3]; [12],> 10 µM
CN(C)C[C@H]1CCn2c(c(C3=C(c4cn(C)c5ccccc45)C(=O)NC3=O)c3ccccc32)C1 [Ro 32-0432],IC50,[1]; [11],> 10 µM
same,IC50,[2]; p38α produced in human cells,> 10 µM
same,IC50,[3]; [12],> 10 µM
CC(=O)c1c(O)c(C)c(O)c(Cc2c(O)c3c(c(C(=O)/C=C/c4ccccc4)c2O)OC(C)(C)C=C3)c1O [Rottlerin],IC50,[1],> 200 µM
same,IC50,[2],>200 µM
same,IC50,[3],> 200 µM
"IL1β: recombinantly-produced, authentic human IL1β from the human cell expression system",induction of IL-17 secretion,[4],significantly more effective
"IL4: IL4 from human cells, glycosylated major band of 19 kD; SEQ ID NO: 22",fold higher potency than the E. coli expressed cytokine,[5],4 fold
"IL6: recombinantly-produced, authentic human IL6; SEQ ID NO: 16",induction of IL-17 secretion,[4],significantly more effective
TGF-β1 from insect cells: TGF-β1 cytokine from insect cells used as comparator,induction of IL-17 secretion,[4],marginal effect
"Vendor B enzyme: p38α from Vendor B, expressed and purified from E. coli, in vitro activated by MKK6",Km,[6],120 µM
"Vendor preparation: p38α from Vendor A, expressed and purified from E. coli, in vitro activated by MKK6",Km,[6],212 ± 26 µM
"authentic human TGF-β1: TGF-β1 from engineered human 293 cells, disulfide-linked dimer of 25 kD",differentiation of Th0 to Th17 cells (IL-17 and INF-γ producing cells),[7],matched human platelet derived native TGF-β1
same,induction of IL-17 secretion,[4],effective in enhancing the effect
same,Th17 cell polarization,[4],can effectively induce Th17 cell polarization
"authentic p38α: recombinantly-produced, authentic human p38a produced and activated in human cells in the presence of arsenite",Km,[6],109 ± 12 µM
"authentic human VEGF165: VEGF165 from engineered human 293 cells, glycosylated homodimer of 45 kD; SEQ ID NO: 2 (protein, glycosylated homodimer) APMAEGGGQNHHEVVKFMDVYQRSYCHPIETLVDIFQEYPDEIEYIFKPSCVPLMRCGGCCNDEGLECVPTEESNITMQIMRIKPHQGQHIGEMSFLQHNKCECRPKKDRARQENPCGPCSERRKHLFVQDPQTCKCSCKNTDSRCKARQLELNERTCRCDKPRR",fold more active than the E. coli expressed protein,[8],10 fold
same,fold more active than the E. coli expressed protein,[8]; listed as VEGF165,6 fold
"TGF-β3: TGF-β3 from engineered human 293 cells, disulfide-linked dimer of 25 kD (protein, UniProt P10600 301-412, looked up) Transforming growth factor …: ALDTNYCFRNLEENCCVRPLYIDFRQDLGWKWVHEPKGYYANFCSGPCPYLRSADTTHSTVLGLYNTLNPEASASPCCVPQDLEPLTILYYVGRTPKVEQLSNMVVKSCKCS",Th17 cell polarization,[4],can effectively induce Th17 cell polarization
"TGF-β2: TGF-β2 from engineered human 293 cells, disulfide-linked dimer of 25 kD (protein, UniProt P61812 303-414, looked up) Transforming growth factor …: ALDAAYCFRNVQDNCCLRPLYIDFKRDLGWKWIHEPKGYNANFCAGACPYLWSSDTQHSRVLSLYNTINPEASASPCCVSQDLEPLTILYYIGKTPKIEQLSNMIVKSCKCS",Th17 cell polarization,[4],can effectively induce Th17 cell polarization
"authentic human Noggin: Noggin from human 293 cell expression system, glycosylated, disulfide-linked dimer; SEQ ID NO: 24 (protein, glycosylated disulfide-linked homodimer) QHYLHIRPAPSDNLPLVDLIEHPDPIFDPKEKDLNETLLRSLLGGHYDPGFMATSPPEDRPGGGGGAAGGAEDLAELDQLLRQRPSGAMPSEIKGLEFSEGLAQGKKQRLSKKLRRKLQMWLWSQTFCPVLYAWNDLGSRFWPRYVKVGSCFSKRSCSVPEGMVCKPSKSVHLTVLRWRCQRRGGQRCGWIPIQYPIISECKCSC",Oct3/4 expression (marker for undifferentiated hES cells),[9],consistently expressed Oct3/4
same,Oct3/4 expression (marker for undifferentiated hES cells),[9]; listed as authentic human homodimer Noggin,expresses so effectively and consistently Oct3/4
"insect cell-produced IL-23: commercially available recombinant IL-23 from an insect cell expression system (protein, UniProt Q9NPF7 20-189; P29460 23-328, looked up) Interleukin-23 subunit alpha: RAVPGGSSPAWTQCQQLSQKLCTLAWSAHPLVGHMDLREEGDEETTNDVPHIQCGDGCDPQGLRDNSQFCLQRIHQGLIFYEKLLGSDIFTGEPSLLPDSPVGQLHASLLGLSQLLQPEGHHWETQQIPSLSPSQPWQRLLLRFKILRSLQAFVAVAARVFAHGAATLSP Interleukin-12 subunit beta: IWELKKDVYVVELDWYPDAPGEMVVLTCDTPEEDGITWTLDQSSEVLGSGKTLTIQVKEFGDAGQYTCHKGGEVLSHSLLLLHKKEDGIWSTDILKDQKEPKNKTFLRCEAKNYSGRFTCWWLTTISTDLTFSVKSSRGSSDPQGVTCGAATLSAERVRGDNKEYEYSVECQEDSACPAAEESLPIEVMVDAVHKLKYENYTSSFFIRDIIKPDPPKNLQLKPLKNSRQVEVSWEYPDTWSTPHSYFSLTFCVQVQGKSKREKKDRVFTDKTSATVICRKNASISVRAQDRYYSSSWSEWASVPCS",concentration at which maximum induction of IL-17 secretion was achieved,[10],10 ng/mL
